Viability data for 79 compounds are collected here from PMC12040169 (PLOS Biology, 2025).

This data set can be described thus: in vitro. As to conditions: human, hela cells, % viability.

Consider `NC1=NC(=O)C(CC(=O)Nc2ccccc2Cl)S1` (stereo not shown) [CBK039145], for which the viability (as a rule, a read-out of living cells in per cent, often relative to untreated cells) at 28.5 h, 10 µM worked out at 99.1%. With `Cc1ccc(C)c(C(C)NC(=O)C2CCCN(S(C)(=O)=O)C2)c1` (stereo not shown) [CBK304672], the viability at 28.5 h, 10 µM came out at 96.6%. Same read-out and setting: the figure for `CNS(=O)(=O)c1ccc(C(C)NC(=O)N2CCN3CCC2CC3)cc1` (stereo not shown) [CBK304765] is 92.2%; for `CN(C)CC1CCCN(C(=O)c2cc3cc(F)ccc3n2C)C1` (stereo not shown) [CBK282122] it is 85.6%; for `O=C1CC(N2CCN(C3CC(=O)N(Cc4ccccc4)C3=O)CC2)C(=O)N1Cc1ccccc1` (stereo not shown) [CBK269198] it is 122%. On the same count and under the same terms, the figure for `CN(Cc1ccc(Br)cc1)C(=O)CNS(=O)(=O)c1cnn(C)c1` [CBK304553] is 82.5%; for `Cc1ccc(-c2nnc(CNC(=O)c3ccccc3-c3ccccc3)o2)s1` [CBK286298] it is 89.2%; for `Clc1ccc(Nc2cncc(-c3cccnc3)n2)cc1` [CBK065234] it is 105%. `CCOC(=O)c1c(NC(=O)Cc2ccccc2)sc2c1CCC2` [CBK262309]: the viability at 28.5 h, 10 µM worked out at 88.4%. Still for that read-out and setting: the figure for `CC(C)NC(=O)c1cc(C2CCN(C(=O)CCOc3ccccc3F)C2)nc2ccccc12` (stereo not shown) [CBK285917] is 101%; for `O=C(O)CC(=Cc1csc(-c2ccc(Cl)cc2)n1)c1nc2ccccc2o1` [CBK297112] it is 104%. Same read-out and setting: the figure for `Cc1cc(CNC(=O)c2cc3ccc(Cl)cc3[nH]2)[nH]n1` [CBK281391] is 87.8%.

As to `Cc1ccc([N+](=O)[O-])cc1NC(=O)CSc1nnc(Cc2ccccc2)o1` [CBK265889], the viability at 28.5 h, 10 µM was determined as 116%. On the same count and under the same terms, the figure for `CN(C)CCn1c(=O)[nH]c2ncc(-c3ccco3)nc21` [CBK064251] is 97.1%; for `COc1ccc(CN2CCN(c3nccnc3NS(C)(=O)=O)CC2)cc1` [CBK084273] it is 88.7%.

As for `Cc1cc(C)c(CNC(=O)C2CC(=O)N(Cc3ccccn3)C2)cn1` (stereo not shown) [CBK304673], the viability at 28.5 h, 10 µM amounted to 89.8%. Same read-out and setting: the value for `COc1ccccc1-c1ncc(OC2CCN(C)C2)nc1N` (stereo not shown) [CBK145081] was 92.4%; that for `COc1ccc(Br)cc1C1CCCN1C(=O)Cc1cnccc1C` (stereo not shown) [CBK304130] was 93.7%. Still for that read-out and setting: the value for `COc1ccc(/C(C)=N/NC(=O)CSCc2cccc(Br)c2)cc1` [CBK261205] was 81.4%; that for `COc1cc(C(=O)N2CCCC3(CC(=O)c4ccc(C)cc4O3)C2)cc(OC)c1C` (stereo not shown) [CBK168239] was 87.2%; that for `COc1ccccc1Cc1noc(COc2cccc(C)c2C)n1` [CBK265521] was 99.9%. On the same count and under the same terms, the figure for `O=C(OCc1cc2ccccc2o1)N1CCOCC1` [CBK200162] is 98.1%; for `CS(=O)(=O)N/N=C/c1ccc(Cl)cc1Cl` [CBK026420] it is 105%. For `CN(Cc1ccncn1)C(=O)c1cn(CC2CCCO2)nn1` (stereo not shown) [CBK307081], the viability at 28.5 h, 10 µM was 108%.

Turning to `O=C(O)C1CC(=O)N(c2cccc3ccccc23)C1` (stereo not shown) [CBK286902], the viability at 28.5 h, 10 µM was 88.8%. Take `COc1ccc([C@H]2CN(Cc3ccccc3)C[C@@H]2NC(=O)CCc2ccco2)cc1` [CBK286477]: the viability at 28.5 h, 10 µM was determined as 87.6%. Take `O=C1COc2ccccc2C/C=C/C[C@H]2CN(C(=O)Cn3ncc4ccccc4c3=O)CC[C@H]2N1` [CBK292084]: the viability at 28.5 h, 10 µM turned out to be 85.6%.

As for `Oc1ccc(-c2oncc2-c2ccccc2)c(O)c1` [CBK288228], the viability at 28.5 h, 10 µM came out at 96.2%. `Cn1cccc1C(=O)N[C@H]1C[C@@H]2C(=O)N[C@H]3CCN(C(=O)CC(C)(C)C)[C@@H]3C(=O)N2C1` [CBK289271]: the viability at 28.5 h, 10 µM was determined as 111%.

As to `N#CC1CCC(CNC(=O)c2sc3ccccc3c2Cl)CC1` (stereo not shown) [CBK010864], the viability at 28.5 h, 10 µM is 106%. Still for that read-out and setting: the figure for `O=C(Nc1ncc(-c2ccccc2)s1)c1csc([N+](=O)[O-])c1` [CBK298293] is 87.4%. Still for that read-out and setting: the value for `COc1cnc(-c2cnn(C)c2)c(NC(=O)c2cc(C)oc2C)n1` [CBK145218] was 93.2%. On the same count and under the same terms, the value for `NC(Cc1ccc(Cl)cc1)C(=O)N(CCc1cc(C(F)(F)F)cc(C(F)(F)F)c1)c1cccc2ccccc12` (stereo not shown) [CBK008674T] was 92.5%. `O=c1nc(O)c2ccccc2s1` [CBK027968]: the viability at 28.5 h, 10 µM came to 94.9%. Same read-out and setting: the value for `CCC(CO)Nc1nccnc1-c1ccc(CO)cc1` (stereo not shown) [CBK036607] was 93%; that for `C(=N\Nc1nc(-c2ccccc2)cs1)/c1ccccc1` [CBK261327] was 101%. The same measure, in the same setting: the value for `Cc1cc(N2C(=O)CC(N3CCC(C(=O)N4CCOCC4)CC3)C2=O)no1` (stereo not shown) [CBK269035] was 92.6%; that for `COc1ccc(CC(=O)NCC(c2cccs2)N2CCOCC2)cc1F` (stereo not shown) [CBK305618] was 99.5%; that for `CCC(SC1=NCCS1)C(=O)Nc1ccc(S(N)(=O)=O)cc1` (stereo not shown) [CBK263027] was 95.3%. On the same count and under the same terms, the figure for `Cc1c(C(=O)N(C)C2CCNC2)nnn1-c1ccc2ncccc2c1` (stereo not shown) [CBK304698] is 94.5%; for `O=C(NC(c1ccccc1)c1ccccn1)C1CCN(C(=O)Oc2ccccc2)CC1` (stereo not shown) [CBK060105] it is 96.9%. On to `COc1ccccc1Cc1cccc(C2CCN(C(=O)c3ccccc3)CC2)n1` [CBK286236], for which the viability at 28.5 h, 10 µM was found to be 101%. Still for that read-out and setting: the figure for `Cc1cc(Cl)cc(Cl)c1S(=O)(=O)Nc1nc(CC(=O)O)cs1` [CBK000573] is 92%; for `CC(C)(C)c1n[nH]c(C2CN(C(=O)CCCn3cccn3)CCO2)n1` (stereo not shown) [CBK305198] it is 88.1%. The same measure, in the same setting: the figure for `O=C(Nc1ccc(F)c(F)c1)c1cnc2sccn2c1=O` [CBK287450] is 104%; for `O=C(Cn1c(-c2cccs2)cc2cccnc21)N1CCCCC1` [CBK282619] it is 98.1%. `COc1cc(-c2ccc(N)c3ccccc23)cc(OC)c1OC` [CBK084332]: the viability at 28.5 h, 10 µM came to 83.5%.

For `Cc1ccc(OCC(=O)Nc2sc3c(c2C#N)CCCC3)cc1` [CBK263548], the viability at 28.5 h, 10 µM came to 109%.

As to `Cc1cc(C)c(OCC(=O)Nc2cc(-c3nc4ncccc4o3)ccc2C)c(Cl)c1` [CBK072887], the viability at 28.5 h, 10 µM came out at 92.7%. Same read-out and setting: the figure for `O=C1Nc2ccccc2SC1(O)C(F)(F)F` (stereo not shown) [CBK025554] is 114%; for `CCNc1cc2ccccc2c(-c2cccc(C(F)(F)F)c2)n1` [CBK085772] it is 101%; for `O=C(Nc1ccc(CCO)cc1)c1cnc(-c2ccc(Cl)cc2)c(-c2ccco2)c1` [CBK037457] it is 97.5%.

On to `CN(C(=O)CN1CCCC1Cn1cccn1)C1(C#N)CCCCC1` (stereo not shown) [CBK304571], for which the viability at 28.5 h, 10 µM came to 88.6%. Same read-out and setting: the figure for `Cc1ccc(-c2ccc(/C=C/c3cc(C(F)(F)F)nc(=O)[nH]3)o2)cc1Cl` [CBK018169] is 103%. Same read-out and setting: the value for `O=C(c1cccs1)N1Cc2ccccc2OC2(CCOCC2)C1` [CBK284942] was 103%. Still for that read-out and setting: the value for `Cc1ccc(S(=O)(=O)N(CC(=O)NC2CCCC2)Cc2ccccc2)cc1` [CBK263166] was 89.9%; that for `Cc1cnc2[nH]c(C3CC3)c(CN3CC(C)OC(C)C3)c2c1` (stereo not shown) [CBK284741] was 91.8%. As to `CCC(C)(C)c1ccc(S(=O)(=O)N2CCCN(Cc3cn(C)c4ccccc34)CC2)cc1` [CBK062871], the viability at 28.5 h, 10 µM is 91.2%.

As to `CCOc1cccc(N2C(=O)CC(N3CCC(C(N)=O)(N4CCCCC4)CC3)C2=O)c1` (stereo not shown) [CBK263562], the viability at 28.5 h, 10 µM is 99%. Still for that read-out and setting: the figure for `O=S(=O)(Nc1ccccc1O)c1ccc(OC(F)(F)F)cc1` [CBK043512] is 80.2%; for `O=C(Cn1ccc2ccnc(-c3cccs3)c21)N1CCOCC1` [CBK284729] it is 94.2%; for `CC(C)Cn1c(=O)[nH]c2ncc(-c3ccc(O)cc3)nc21` [CBK065011] it is 105%. For the compound `CCN1CCC[C@@H]1CNC(=O)c1n[nH]c2c1CCC2` [CBK174628], the viability at 28.5 h, 10 µM came out at 106%. In the case of `CCCC(=O)NC1CCN(C(=O)c2snnc2CC)CC1` [CBK297744], the viability at 28.5 h, 10 µM was found to be 97.3%. Still for that read-out and setting: the figure for `Nc1ncc(-c2cccs2)nc1-c1ccc(F)c(Cl)c1` [CBK063990] is 101%; for `O=C(Nc1cccnc1)c1cnc(-c2ccc(Cl)cc2)c(-c2cccnc2)c1` [CBK037568] it is 102%. Same read-out and setting: the figure for `Cc1ccc(C(=O)N2CCC(c3nn(C)c4ncccc34)CC2)s1` [CBK284988] is 86.1%; for `CC(C(=O)NC1(C#N)CCCCC1)N1CCOC(c2nccs2)C1` (stereo not shown) [CBK305299] it is 80.9%; for `CC(C)(C)OC(=O)N1CCc2[nH]nc(Nc3ccccc3)c2C1` [CBK281541] it is 80%. Still for that read-out and setting: the value for `Cc1cc(=O)oc2ccc(OCC(=O)N(Cc3ccc(F)cc3)Cc3ccco3)cc12` [CBK266639] was 103%; that for `O=C(Nc1cc(F)ccc1N1CCCC1)c1ccc(=O)n(CC(=O)N2CCCCC2)c1` [CBK286083] was 97.7%; that for `COc1ccc(S(=O)(=O)NC(C)C(=O)NCc2cccnc2)cc1Cl` (stereo not shown) [CBK269384] was 95.8%. As to `Cc1ccn2c(-c3csc(Nc4ccc(S(N)(=O)=O)cc4)n3)c(C)nc2c1` [CBK263304B], the viability at 28.5 h, 10 µM worked out at 63.7%. Regarding `O=S(=O)(NC1CCCCC1)c1ccc(Cl)cc1I` [CBK057574], the viability at 28.5 h, 10 µM stood at 80.8%. On the same count and under the same terms, the value for `O=C(N/N=C/c1ccc(OC(=O)c2ccc([N+](=O)[O-])cc2)cc1)c1cccnc1` [CBK262146] was 101%. In the case of `COc1cc(C2OCCNC2C)c(OC)cc1C` (stereo not shown) [CBK010347C], the viability at 28.5 h, 10 µM (bulk resorufin, single well) turned out to be 90.7%.

Consider `Cc1ccccc1C(NC(=O)C1CCN(C(=O)OCc2ccccc2)CC1)c1ccc(=O)[nH]c1` (stereo not shown) [CBK083200], for which the viability at 28.5 h, 10 µM was 85.7%. With `O=C1NC(=O)C(=Cc2cccc(OC(F)(F)C(F)F)c2)C(=O)N1` [CBK265150], the viability at 28.5 h, 10 µM (bulk resorufin, single well) is 108%. Regarding `O=c1c2[nH]cc(-c3ccccc3)c2ncn1CCc1ccccc1` [CBK288025], the viability at 28.5 h, 10 µM was found to be 76.9%.
